For this experiment, the system named is BN receptors on the Swiss 3T3 mouse fibroblast cell line. Put plainly: Test 1: displacement of [¹²⁵I-Tyr⁴]-BN from BN receptors on Swiss 3T3 cells. It counts as binding. As to conditions: 1 nmol [¹²⁵I-Tyr⁴]-BN, 4 °C, 3 hours. As to the method: The biological investigation of the new compounds of the invention was carried out in four tests. The BN-antagonizing effect of the compounds in question was determined in Test 1, based on measuring the displacement of the labelled [¹²⁵I-Tyr⁴]-BN from the BN receptors being present on the Swiss 3T3 mouse fibroblast cells. Test 2 and Test 3 were used to study the inhibitory effect of the compounds of the invention on the proliferation and propagation of NCI-H69 small-cell lung cancer cells. The inhibitory effect of the compounds of the invention on non-small-cell lung cancer cells and epithelial-cell lung cancer cells was investigated in Test 4.
Study of the binding of target compounds to BN receptors on the Swiss 3T3 mouse fibroblast cell line
Swiss 3T3 mouse fibroblast cells were grown on tissue-cultivating plates containing 24 holes in a D-MEM culture medium containing FCS of 10 % until a confluent and resting state (3x10⁵ cell/hole). The cells were washed 3 times with 0.5 ml of D-MEM of pH 7.4 (containing 0.2 % of BSA and 24 mmol of HEPES, and cooled to 4 °C), i.e. incubation mixture, each. […] At the end of the reaction the cells were washed twice with the incubation mixture and then 3 times with PBS (pH = 7.4).
The washings were carried out with 750 µl volumes of the ice-cold liquids each. The cells were solubilized by adding 750 µl of 0.5 M sodium hydroxide solution, carried over into test-tubes by pipette and the radio-activity bound to the cells was measured. The grade of aspecific binding was determined in the presence of a high concentration (10⁻⁶ mol/l) of cold [Tyr⁴]-BN. The amount of the specifically bound, labelled hormone was expressed as the percentage of the maximum binding, i.e. the specific binding in the absence of the compounds to be tested, as shown in Table 1.

This note sets out measurements from EP0556962A1, “Small peptide and pseudopeptide amides inhibiting the proliferation of small-cell and epithelial-cell lung cancer cells” (RICHTER GEDEON VEGYESZETI GYAR R.T., priority 1992, dated 1993).

Where a SMILES comes first, the peptide text is derived from it. [ ]: non-standard residue; d: D form. The star is where a group is joined. X2 = CC(C)C[C@@H](CN[C@@H](CC(C)C)C(N)=O)N*; X1 = O=C(Cc1ccc(O)cc1)*

`CC(C)C[C@@H](CN[C@@H](CC(C)C)C(N)=O)NC(=O)[C@@H](Cc1c[nH]c2ccccc12)NC(=O)[C@H](Cc1ccccc1)NC(=O)[C@@H](Cc1c[nH]c2ccccc12)NC(=O)Cc1ccc(O)cc1` [(1)]: the “Displacement as percentage of control net binding” value (from here on “Displacement as percentage”) reads like this: (1.18 µmol/l compound) 105%; (2.36 µmol/l compound) 96%; (4.71 µmol/l compound) 99%; (9.42 µmol/l compound) 103%; (18.8 µmol/l compound) 106%; (37.6 µmol/l compound) 107%. Moreover, the “Displacement as percentage” value (75 µmol/l compound) turned out to be 105%.
As to `CC(C)C[C@@H](CN[C@@H](CC(C)C)C(N)=O)NC(=O)[C@@H](Cc1c[nH]c2ccccc12)NC(=O)[C@H](Cc1ccccc1)NC(=O)[C@@H](Cc1c[nH]c2ccccc12)NC(=O)[C@H](N)Cc1ccc(O)cc1` [(4)] (H-[dY][dW]F[dW]-X2), the “Displacement as percentage” value by setting is: (1.18 µmol/l compound) 85%; (2.36 µmol/l compound) 88%; (4.71 µmol/l compound) 79%; (9.42 µmol/l compound) 72%; (18.8 µmol/l compound) 61%; (37.6 µmol/l compound) 52%. For the same compound, the “Displacement as percentage” value (75 µmol/l compound) came to 45%.
Consider `CC(C)C[C@H](NC(=O)[C@H](CC(C)C)NC(=O)[C@@H](Cc1c[nH]c2ccccc12)NC(=O)[C@H](Cc1ccccc1)NC(=O)[C@@H](Cc1c[nH]c2ccccc12)NC(=O)Cc1ccc(O)cc1)C(N)=O` [(I), reference compound] (X1-[dW]F[dW]LL-NH2), for which the “Displacement as percentage” value was determined as 108% (1.18 µmol/l compound); 98% (2.36 µmol/l compound); 83% (4.71 µmol/l compound); 55% (9.42 µmol/l compound); 33% (18.8 µmol/l compound); 18% (37.6 µmol/l compound). The “Displacement as percentage” value (75 µmol/l compound) amounted to 23%.
